“Also recorded” adds a separate entry of the source.
What was measured:
[1] = tested on: cardiac tissue mimetics (CTMs); assay: Seahorse assay (OCR, ECAR) of CTMs; assay type: cell-based, rat, human; details: PE-treated vs control CTMs
Description: The Agilent Seahorse XFe96 spheroid microplate was coated with Poly-D Lysine 100 μg/mL following the manual instruction. 1×KHB medium (111 mM NaCl, 4.7 mM KCl, 2 mM MgSO4, 1.2 mM Na2HPO4, 2.5 mM D-Glucose, 0.5 mM carnitine) supplemented with 6 mM D-Glucose was prepared prior the experiment. CTMs were washed twice with KHB medium and every single CTM was then transferred directly into each well of XFe96 spheroid microplate containing 175 μL of KHB medium. CTMs were centered into the micro-chamber and incubated at 37° C. in non-CO2 incubator for 1 hour. The Seahorse XF Cell Mito Stress Test was performed using sequential injection of Oligomycin (2.5 μM, Sigma, O4876), FCCP (2.0 μM, Sigma, C2920) and Antimycin A (0.5 μM, Sigma, A8674) following a 3-min-mixing and 3-min-measuring cycles for up to 2 hours. Oxygen consumption rate (OCR) and Extracellular acidification rate (ECAR) were measured and calculated using Seahorse XFe96 Analyzers (Agilent Technologies).

[2] = tested on: cardiac tissue mimetics (CTMs); assay: CTM vascularisation (GFP-HUVEC sprout length, thickness, branch points); assay type: cell-based, rat, human; details: 200 μM PE, 10 days, vs control; for filopodia formation in CTMs: FIG. 13; for vascularization / angiogenesis of CTMs: FIGS. 13, 14, 36
HUVEC spheroids = assay: Spheroid-based angiogenic sprouting assay; assay type: cell-based, human
Description: After 72 hours, cell culture supernatants were centrifuged (500×g, 5 minutes) to deplete dead cells and stored at −80° C.
Endothelial cell sprouting was studied by in vitro spheroid-based angiogenesis assays. In brief, HUVECs were trypsinized and transferred into a mixture of fully supplemented EBM™ and methylcellulose (80%:20%). […] After 24 hours, spheroids were collected, pelleted (200×g, 3 minuted), resuspended in methylcellulose supplemented with FCS (80%:20%) and embedded in a collagen Type-I gel (Corning; 354236). HUVEC spheroids were then either cultured with fully supplemented EBM (+/−VEGF (50 ng/mL; BioLegend; 583702) or +/−PE (200 μM)), maintenance medium or conditioned cell culture medium.

[3] = tested on: cardiac tissue mimetics (CTMs); assay: Lactate dehydrogenase assay and toxicity assay (phospho-Histone H2A.X) of CTMs; assay type: cell-based, rat, human
Description: Media of CTMs were replaced completely with fresh medium 24 h before performing the assays. After 24 h, supernatants were collected and in maximum 50 μL of each supernatant was used for every measurement with the Lactate Dehydrogenase Activity Kit (Sigma; MAK066). To determine enzyme activity, the absorbance at 450 nm (A450) was measured with the CLARIOstar plate reader (BMG Labtech). LDH activity were calculated following the manufacturer's instruction. CTMs that incubated with 0.2% H2O2 in medium for 30 minutes at 37° C. served as positive control.

[4] = tested on: CTMs obtained from human iPSC; assay: Stress response of CTMs obtained from human iPSC (contraction frequency, volume, lactate); assay type: cell-based; details: 200 μM PE
Description: After 10 days of culture, CTMs were treated with 200 μM Phenylephrine (PE), and in parallel, were cultured under conditions of hypoxia (3% O2). Videos of contracting CTMs were recorded for 1 min and analysed to observe the response. The contraction frequency was measured at day 3 (to obtain a short-term response) and day 20 (to obtain a long-term response). […] Human iPS cardiomyocytes (hiPS-CMs) were ordered from Fujifilm CDI and thawed before the culture. Human cardiac fibroblasts (hCFB) were cultured and trypsinized. The two cell types were mixed at a CM:FB ratio of 5:1 in plating medium (PM provided by CDI). The mixed cells were left to form cardiac tissue mimetics in 30 μL hanging drops containing PM with a density of 5000 hiPS-CMs and 1000 hCFB and incubated at 37° for four days. The cardiac tissue mimetics were then collected, and every single cardiac tissue mimetic was again distributed into each well of ultra-low-attachment (ULA) plates with maintenance medium (MM; provided by CDI). MM was changed every two days. After seven days, human IPS endothelial cells (hiPS-ECs) were thawed and added into each well at a CM:EC ratio of 2:1. A mixed medium of MM and EC growth medium (EGM; provided by CDI) at a 1:1 ratio was used and half of the medium was changed every second day. After 10 days cardiac tissue mimetics were harvested for further assays.

[5] = tested on: cardiac tissue mimetics (CTMs); assay: mRNA expression in CTMs (qPCR of titin isoforms, bulk RNA sequencing); assay type: cell-based, rat, human
Description: CTMs, heart tissues of neonatal pups and adult rats were collected into Lysing Matrix D tubes (MP Biomedical; 6913-500) and 700 μL of TriFast (VWR; 3010-100ML) was added. Cells and tissues were homogenized 3 times for 20 s following by 5 min. pause on ice. Total RNA was purified with the Direct-zol™ RNA MicroPrep kit (Zymo Research; R2060). The RNA concentration was determined by measuring absorption at 260 nm and 280 nm with the NanoDrop® ND 2000-spectrophotometer (Peq Lab).
cDNA was synthesized from 500 ng of total RNA with EcoDry Premix RNA to cDNA (Random Hexamers) (Clontech; 639546). qPCR was performed using 10 μL of iTaq™ Universal SYBR® Green Supermix (Bio-Rad; 172-5124), 1 μL of 10 μmol/L forward and reverse primer each, 1 μL of cDNA template and 7 μL of H2O in a Bio-Rad CFX96 Connect Real-Time PCR system. Primers using to quantify mRNA expression were ordered from Metabion (Table 2).
Bulk RNA sequencing was performed as previously described (J. U. G. Wagner, E. Chavakis, E. M. Rogg, M. Muhly-Reinholz, S. F. Glaser, S. Gunther, D. John, F. Bonini, A. M. Zeiher, L. Schaefer, M. J. Hannocks, R. A. Boon, S. Dimmeler, 2018, Arterioscler Thromb Vasc Biol 38(5), 1170-1177). […] Sequencing was performed on the NextSeq500 instrument (IIlumina) using v2 chemistry, resulting in minimum of 30M reads per library with 1×75 bp single end setup. […]

[6] = tested on: cardiac tissue mimetics (CTMs); assay: Fluorescence immunohistochemistry of CTMs (α-actinin, WGA, Atp5a1); assay type: cell-based, rat, human
Description: Cryosections of CTMs were stained with DAPI, anti-α-Actinin and Alexa Flour conjugate of Wheat-Germ-Agglutinin. Area of 100 cardiomyocytes per condition were quantified using ImageJ. In case of whole mount stainings, CTMs were permeabilized with 0.2% Triton® X-100 in PBS for 1 hour at room temperature followed by blocking with 5% horse serum (Sigma-Aldrich) in PBS for 30 minutes at room temperature. Primary antibodies (see Table 1) were diluted 1:200 in 5% horse serum and incubated over night at 4° C. Before using the secondary antibody (see table below), CTMs were washed three times with PBS containing 1% Tween 20 and 0.002% Triton® X-100 (referred as PBT from here after) for 20 minutes at room temperature. Secondary antibodies (1:500) and DAPI (1:1000; Carl-Roth GmbH & Co. KG) were diluted in 5% horse serum together and incubated for 4 hours at room temperature in the dark. […] Cryo-sections were prepared by embedding fixed spheroids in O.C.T medium (Tissue-Tek), snap-freezing them in liquid nitrogen and cutting them in 10 μm thick sections. Sections were permeabilized and blocked for one hour in 0.1% Triton® X100 (in PBS+BSA). Primary antibody incubated with the sections diluted 1:50-1:100 in 1 mM MgCl2, 1 mM CaCl2, 0.1 mM MnCl2, 1% Triton® X-100 or 0.2% saponin over night at 4° C. […]

[7] = tested on: cardiac tissue mimetics (CTMs); assay: CTM size measurement; details: 200 μM PE, 10 days, vs untreated control; FIG. 4
[8] = tested on: cardiac tissue mimetics (CTMs); assay: Contractility measurement of CTMs (spontaneous beats per minute; pacing at 1 Hz and 15 V); details: PE-treated vs control, electric pacing 1 Hz; FIG. 8

With CNC[C@H](O)c1cccc(O)c1 [PE, phenylephrine] the “glycolysis (basal extracellular acidification rate)” value ([1]; FIG. 11) was “reduction”, the “oxidation metabolism (oxygen consumption rate)” value ([1]; FIGS. 9-10) was “increased” and the “filopodia formation in CTMs” value [2] was “more filopodia”. The “filopodia formation in CTMs” value ([2]; listed as phenylephrine) was “induces”, the “number of branch points in CTMs” value ([2]; FIG. 14) was “increased” and the “tube length (accumulated sprout length) in CTMs” value ([2]; FIG. 14) was “increased”. For the same compound, the “tube thickness in CTMs” value ([2]; FIG. 14) was “increased”, the “vascularization / angiogenesis of CTMs” value [2] was “significantly augmented” and the “vascularization / angiogenesis of CTMs” value ([2]; listed as phenylephrine) was “induces”. For the same compound, the “EC spheroid growth / vascular network growth and branching (cumulative sprout length), direct treatment” value (HUVEC spheroids; HUVEC spheroids, 200 μM PE or 50 ng/mL VEGF, 24 hours, FIG. 15) was “did not impact”, the “EC growth and sprouting with conditioned medium of PE-stimulated CM” value (HUVEC spheroids; neonatal rat CM treated with PE 72 hours, supernatant on HUVEC spheroids 24 hours, FIG. 17) was “significantly increase” and the “EC sprouting with conditioned medium of PE-stimulated FB” value (HUVEC spheroids; neonatal rat FB treated with PE 72 hours, supernatant on HUVEC spheroids 24 hours, FIG. 38) was “no effect”. For the same compound, the “extracellular lactate dehydrogenase (LDH) as marker of necrosis” value ([3]; mature CTMs with PE vs untreated control, FIG. 35) was “failed to reveal differences”, the “cytotoxicity in CTMs (p-γ-H2AX staining, LDH activity)” value ([3]; phenylephrine-treated mature CTMs, FIGS. 34 and 35) was “no cytotoxicity” and the contraction frequency ([4]; day 3, FIG. 41) was “significantly increased”. The “volume of the CTMs” value ([4]; day 3, FIG. 42) was “no significant change”, the “lactate concentration in culture media” value ([4]; day 3, FIG. 43) was “significant increase” and the contraction frequency ([4]; day 20, FIG. 41) was “significantly increased”. The “lactate concentration in culture media” value ([4]; day 20, FIG. 43) was “significant increase”, the “volume of the CTMs” value ([4]; day 20, vs control, FIG. 42) was “significant increase” and the “KEGG gene sets for adrenergic signaling, metabolism and contractility” value ([5]; PE stimulation vs untreated CTMs, FIG. 33) was “enrichment and elevated expression”. For the same compound, the “titin isoform mRNA expression (N2B, N2BA2)” value ([5]; PE-treated vs control CTMs, FIG. 6) was “shift towards adult-type titin isoform expression”, the “cardiomyocyte maturation and hypertrophy (sarcomeric α-actinin staining, sarcomere organization and density)” value ([6]; 200 μM PE, 10 days, vs control, FIGS. 5-7) was “significantly increased” and the “mitochondrial function and mitochondrial density” value ([6]; PE-treated vs control CTMs, Atp5a1 staining, FIGS. 9-12) was “increased”. For the same compound, the “CTM growth (size as volume)” value [7] was “significantly increased” and the “contractile amplitude in paced CTMs” value [8] was “significant increase; also recorded: augment”.

— patent US12534707B2, “Method for generating cardiac tissue mimetics” (GENOME BIOLOGICS UG, priority 2019, dated 2026)
